What was measured:
PAI-1 = assay: Western blot of PAI-1 in primary culture of human coronary artery smooth muscle cells; assay type: cell-based
24(OH)ase = assay: effect of drugs on the expression of 24(OH)ase; assay type: cell-based
Procedure: Two observations may be noted in these studies: (1) 100% inhibition of growth was never achieved even at 1 μM of any of the test compound. Confocal microscopy studies confirm that, although these drugs are potent in inducing the translocation of VDR from cytoplasm to nucleus, not all cells respond to VDRAs even after 2 h of exposure, which may explain the <100% inhibition.

[1] = cited from earlier work
renin mRNA expression = assay: Northern blot analysis of renin mRNA expression in As4.1-hVDR cells; assay type: cell-based
Procedure: (§1) Using an in vitro system, an examination was carried out in order to determine the ability of paricalcitol to suppress renin expression. […] This inhibitory activity is confirmed by renin promoter-luciferase assays, which examine the activity of paricalcitol to suppress renin gene transcription.

renin gene promotor = assay: renin promoter-luciferase assay; assay type: cell-based; conditions: FIG. 2
Procedure: as §1

| suppressing the activity of the renin gene promotor, relative to calcitriol (renin gene promotor) | SMILES | potency in reducing the PAI level (PAI-1) | potency on stimulating the expression of 24(OH)ase relative to calcitriol (24(OH)ase) | survival benefit for CKD patients relative to calcitriol ([1]; CKD patients) | potency in the clinical studies relative to calcitriol ([1]; clinical studies) | renin-inhibiting activity relative to calcitriol (renin mRNA expression; FIG. 1A and B) | inhibition of renin mRNA expression (renin mRNA expression; Northern blot, FIG. 1) |
| --- | --- | --- | --- | --- | --- | --- | --- |
| – | C=C1/C(=C\C=C2/CCC[C@]3(C)[C@@H]([C@H](C)CCCC(C)(C)O)CC[C@@H]23)C[C@@H](O)C[C@@H]1O [calcitriol] | equally potent | – | – | – | – | – |
| as least as potent as calcitriol | C[C@H](/C=C/[C@H](C)C(C)(C)O)[C@H]1CC[C@H]2/C(=C/C=C3C[C@@H](O)C[C@H](O)C3)CCC[C@]12C [paricalcitol] | equally potent | less potent than calcitriol | more profound for paricalcitol over calcitriol | less potent than calcitriol | a bit more potent than calcitriol | dose-dependently inhibits renin mRNA expression |
